Reference: patent US12357666B1, “Traditional Chinese herbal plant composition for improving symptoms of liver cancer patients and compatibility method thereof” (The First Hospital of China Medical University, priority 2024, dated 2025)

Columns and labels:
[1] = test system: Hep G2 cell line; experiment: Anti-tumor effect on tumor mice (subcutaneous Hep G2 model): tumor mass and tumor inhibition rate; type: in vivo, BALB/c nude mice; settings: 28 d
Excerpt: The effect example explored the anti-tumor effect of the herbal plant compositions of Embodiment 1 and Comparative Examples 1 to 3 on tumor mice, and a specific process is as follows.
(§1) Totally 90 male BALB/c nude mice aged 5 weeks and with body weight of 19-22 g were used.
(§2) A total of 80 BALB/c nude mice were randomly selected and injected subcutaneously with Hep G2 cell line (5×10^6 cells) in the right armpits.
Dosing Criteria: the conventional gavage dose of mice was […]. Generally, it is also necessary to increase the dose of the original medicinal material of the herbal plant composition by 1 time and decrease the dose of the original medicinal material of the herbal plant composition by 1 time for gavage.
Low-dose Embodiment 1 Herbal Plant Composition Group: 10 mice, administered 5.27 g/kg Embodiment 1 herbal plant composition by gavage.
Medium-dose Embodiment 1 Herbal Plant Composition Group: 10 mice, administered 10.53 g/kg Embodiment 1 herbal plant composition by gavage.
High-dose Embodiment 1 Herbal Plant Composition Group: 10 mice, administered 21.06 g/kg Embodiment 1 herbal plant composition by gavage.
High-dose Comparative Example 1 Herbal Plant Composition Group: 10 mice, administered 21.06 g/kg Comparative Example 1 herbal plant composition by gavage.
High-dose Comparative Example 2 Herbal Plant Composition Group: 10 mice, administered 21.06 g/kg Comparative Example 2 herbal plant composition by gavage.
High-dose Comparative Example 3 Herbal Plant Composition Group: 10 mice, administered 21.06 g/kg Comparative Example 3 herbal plant composition by gavage.
Western medicine control group: 10 mice, administered 0.03 g/kg 5-fluorouracil by gavage.
After 28 d of continuous administration, the mice in each group were weighed and killed by cervical dissection. […] After washing, the tumors and the organs were dried with filter paper, weighed to obtain mass and recorded, and the tumor inhibition rate and organ index were calculated. […]

[2] = Organ index (lung, liver, heart, kidney) of tumor mice; type: in vivo, BALB/c nude mice; settings: 28 d
Excerpt: as §1, §2
After 28 d of continuous administration, the mice in each group were weighed and killed by cervical dissection. Tumors and organs (lung, liver, heart and kidney) of the mice in each group were removed under sterile conditions, and washed with physiological saline. After washing, the tumors and the organs were dried with filter paper, weighed to obtain mass and recorded, and the tumor inhibition rate and organ index were calculated. The tumor mass of the mice was the average value of the tumor mass of each group of mice. Tumor inhibition rate=(tumor mass of mice in the model group-tumor mass of mice in the test group)/tumor mass of mice in the model group×100%. Organ index (mg/g)=organ mass (mg)/body mass (g) of mice.

For `O=c1[nH]cc(F)c(=O)[nH]1` [Western medicine control group, 5-fluorouracil], the “Tumor mass” value ([1]; 0.03 g/kg by gavage, Hep G2 tumor nude mice) was 0.27 g, the “tumor inhibition rates in mice (in words)” value ([1]; Table 2, gavage) was “relatively high” and the “Inhibition rate (%)” value ([1]; tumor inhibition vs model group, 0.03 g/kg by gavage) was 48.07%. The “Cardiac Index” value ([2]; 0.03 g/kg by gavage) was 5.13 mg/g, the “Liver index” value ([2]; 0.03 g/kg by gavage) was 42.78 mg/g and the “Lung index” value ([2]; 0.03 g/kg by gavage) was 5.96 mg/g. For the same compound, the “Renal index” value ([2]; 0.03 g/kg by gavage) was 17.69 mg/g and the “liver index, renal index, lung index and cardiac index compared to the model group (in words)” value ([2]; Table 3, gavage) was “no significant change”.
